87 compounds from PubChem BioAssay AID2305 (GlaxoSmithKline (GSK), 2010) can be followed below.

The test system of this assay is P. falciparum 3D7 growth, pLDH absorbance. As to the kind of experiment: P. falciparum 3D7 growth inhibition, dose response, strain 3D7 (AID 2305).

On to `CN(C)C=Nc1ccc(OCCCCCCOc2ccc(N=CN(C)C)cc2)cc1`, for which the IC50 (as a rule, the midpoint of a concentration-inhibition curve) was found to be 0.13 µM.
The result for `Nc1c(Cl)cc(C(O)CNCCCCCCOCCc2ccc(CO)s2)cc1Cl` (configuration not stated) reads 1.05 µM.
As for `Cc1ccc(Nc2nc(NN=Cc3cccc([N+](=O)[O-])c3)nc(Nc3ccccc3)n2)c(C)c1`, the figure is 0.63 µM; as for `O=C(Nc1ccc(-c2nc3ccccc3[nH]2)cc1)c1ccc(-c2cccc([N+](=O)[O-])c2)o1`, 0.27 µM.
The result for `Cc1c(F)cc(C(=O)NC2CC2)cc1-c1ccc2c(cnn2S(=O)(=O)c2ccc(Cl)s2)c1` reads 0.39 µM; that for `COc1ccc(CCNC(C)Cc2ccc(C(=O)Nc3ccc(CC(C)NCCc4cccc(Cl)c4)cc3)cc2)cc1` (configuration not stated), 0.25 µM.
In the case of `Oc1cc(Nc2ccnc3cc(-c4cccc(CN5CCOCC5)c4)ccc23)c(F)cc1Cl`, the concentration for half-maximal inhibition (IC50) is 0.21 µM.
The result for `c1cncc(CCNCc2ccc(-c3ccc(-c4nc5ccccc5[nH]4)s3)cc2)c1` reads 0.21 µM.
In turn, `Cc1ccc(C)c(NC(=O)NCCNc2ccnc(Nc3ccc(F)cc3)n2)c1` registered an IC50 of 0.82 µM.
As for `O=C(Nc1ccc([N+](=O)[O-])cc1)c1nn(-c2ccccc2)cc1N=Cc1cccc(O)c1`, the figure is 0.89 µM; as for `OC1(c2ccc(Cl)c(C(F)(F)F)c2)CCN(CCOC2c3ccccc3CSc3ccc(Cl)cc32)CC1` (configuration not stated), 0.8 µM; as for `CC(=O)Nc1cccc(CNCc2ccc(-c3cnc(N4CCCC(C)(C)C4)nc3)cc2)c1`, 0.82 µM.
For the compound `CCCC(C)Nc1nc(C)cc(NCCC(=O)Nc2ccccc2)n1` (configuration not stated), the IC50 amounted to 0.96 µM.
As for `Cc1nc(NCc2ccccc2)cc(NCC(O)c2ccc(O)cc2)n1` (configuration not stated), the figure is 1.23 µM.
The result for `c1cc(CNC2Cc3ccc(-c4cccs4)cc3C2)cc(-n2ccnc2)c1` (configuration not stated) reads 0.59 µM; that for `COc1ccc(C2CCN(CCCCNC(=O)c3ccc(NC(=O)c4ccc(Cl)cc4)cc3)C2)c(OC)c1` (configuration not stated), 1.2 µM.
`Cc1[nH]c(C)c(-c2cccc(-c3ccc(OC(F)(F)F)cc3)c2)c(=O)c1Br`: the IC50 was 0.41 µM.
The result for `O=C(NC1CCC(N2CCC(O)(c3ccc(F)cc3)CC2)CC1)c1cc2ccccc2[nH]1` (configuration not stated) reads 0.74 µM.
As for `CN(C)Cc1ccc(-c2ccc3c(Nc4ccc(Oc5ccccc5)cc4)ccnc3c2)o1`, the figure is 0.79 µM; as for `CNC(=S)NCc1cnc2ccccn12`, 0.2 µM; as for `O=C(CCCCCNC(=O)c1ccc(O)c(-c2ccc(Cl)c(Cl)c2)c1)NCCc1ccc(Cl)c(Cl)c1`, 0.76 µM.
The compound `CC(C)CCN1CCCN(Cc2ccc(C(=O)NCc3ccc(Cl)cc3)cc2)CC1` had a concentration for half-maximal inhibition (IC50) of 1.01 µM.
`CCCC(C)Nc1nc(C)cc(NCCC(=O)Nc2ccc(OC)cc2)n1` (configuration not stated) displayed an IC50 of 1.38 µM.
`Cc1cc(C(=O)Nc2ccc3c(c2)CCN3C2CCN(Cc3cccc4cc[nH]c34)C2)no1` (configuration not stated) came in with an IC50 of 0.19 µM.
The result for `Cc1nc(-c2ccc3c(c2)CCN(CCC2CCC(NC(=O)c4cc5cccc(Cl)c5[nH]4)CC2)CC3)no1` (configuration not stated) reads 0.63 µM; that for `CO/C(=C\C=C\c1cc2cc(Cl)c(Cl)cc2[nH]1)C(=O)NCCCN1CCN(c2cccc(Cl)c2)CC1`, 0.73 µM; that for `N#Cc1ccc(N2CCN(Cc3cccc(-c4cccc(-c5nc6ccc(C(F)(F)F)cc6[nH]5)c4)c3)CC2)nc1`, 0.96 µM.
The result for `CCN1CCC(N(Cc2ccc(-c3ccc(C(F)(F)F)cc3)cc2)C(=O)Cn2c(CCc3cccc(F)c3F)cc(=O)c3c2CCCC3)CC1` reads 0.76 µM; that for `CCCC(CC)n1ccc2c3c(N)nc(N)nc3ccc21` (configuration not stated), 0.01 µM.
The result for `NC1CCN(CCNCc2cccc(-c3ccc(-c4nc5ccc(F)cc5[nH]4)cc3)c2)C1` (configuration not stated) reads 0.73 µM; that for `Cc1cccc(CNc2nc(C)cc(N[C@@H](Cc3ccccc3)C(=O)NCc3cccc(F)c3)n2)c1`, 1.04 µM; that for `NC1=NC(CCc2ccccc2)N(c2ccc(Cl)cc2)C(N)=N1` (configuration not stated), 0.04 µM.
On to `O=C(N[C@@H](CC1CCCCC1)C(=O)NC1CC1)c1ccc(O)c(-c2cccc(C(F)(F)F)c2)c1`, for which the IC50 stood at 0.77 µM.
The result for `CSc1ccc(C=CC(=O)NC(=O)c2ccccc2O)cc1` reads 0.29 µM; that for `CN1CCN(CCCN(Cc2cccc(-c3ccc(CNCc4ccc5c(c4)OCO5)cc3)c2)C(=O)Nc2ccccc2)CC1`, 0.68 µM.
The result for `CCCC(N)C(=O)NC1CCN(c2c(F)c(N)c3c(=O)c(C(=O)O)cn4c3c2Oc2ccccc2-4)C1` (configuration not stated) reads 0.36 µM; that for `Fc1cccc(Nc2nc(NCCc3ccc(Cl)cc3)nc(Nc3cccc(F)c3)n2)c1`, 1.07 µM; that for `Cc1cccc(CNc2nc(C)cc(NCCC(=O)Nc3ccccc3)n2)c1`, 1.05 µM.
The result for `Cc1c(Cn2nc(Cl)c(N3CCNCC3)cc2=O)cccc1NC(=O)Nc1ccc(-c2ccccc2)cc1` reads 1.38 µM; that for `COc1ccc(CCNC(=O)c2cc(C)ccc2O)cc1-c1ccc(C(C)(C)C)cc1`, 0.48 µM.
`Cc1ccc(C2(O)C[C@H]3CC[C@@H](C2)N3C)cc1` (some centres not stated) registered a concentration for half-maximal inhibition (IC50) of 0.61 µM.
As for `CC(=O)Nc1ccc(OCCN(CC(C)C)c2ccc(C#N)c(C(F)(F)F)c2)c(Cl)c1`, the figure is 0.79 µM; as for `Nc1nc(N)c2c(Oc3cccc4ccccc34)cccc2n1`, 1.01 µM.
As for `CN1CCC(N2CCN(Cc3cccc(-c4ccc(-c5nc6ccccc6[nH]5)cc4)c3)CC2)CC1`, the figure is 0.16 µM; as for `Cc1cccc(C(=O)NC(NC(=S)Nc2cc(Cl)ccc2Cl)C(Cl)(Cl)Cl)c1` (configuration not stated), 1.27 µM.
As for `CCN(CCCN1CCCCC1)c1cc(C)nc(Nc2ccc(C(F)(F)F)cc2)n1`, the figure is 0.37 µM; as for `CCN(CC)CCN(Cc1ccc(-c2ccc(C(F)(F)F)cc2)cc1)C(=O)Cn1c(CCc2cccc(F)c2F)cc(=O)c(C)c1C`, 0.62 µM.
`COc1ccc(CC(=O)NC(CCCN2CCC(c3ccccc3)CC2)c2ccc(Cl)c(Cl)c2)cc1OC` (configuration not stated) had an IC50 of 1.05 µM.
The result for `Cc1ccc(Cc2cnc(CN3CCCCC3)c(O)c2)cc1` reads 0.89 µM.
Regarding `NC(=O)c1ccccc1OCC(=O)Nc1cccc(-c2ccc(-c3nc4ccccc4[nH]3)cc2)c1`, the 50% inhibitory concentration (IC50) came to 0.79 µM.
The result for `Cc1cc(N2CCCN(C)CC2)nc(Nc2ccc(Br)cc2)n1` reads 0.72 µM; that for `O=C(/C=C/c1ccc(Cl)c(Cl)c1)NCCCCCN1CCC(CCNC(=O)c2snnc2-c2ccccc2)CC1`, 0.82 µM.
The result for `Cc1ccc(C(=O)Cn2nc(-c3ccc(C)c(S(=O)(=O)N4CCCC4)c3)ccc2=O)cc1` reads 0.51 µM.
The result for `CN(C)CCNC(=O)c1ccc(-c2ccc3c(Nc4ccccc4)c(C(N)=O)cnc3c2)cc1` reads 0.73 µM; that for `C(=Cc1nc2ccccc2s1)c1ccc2c(c1)OCCO2`, 0.39 µM; that for `CCc1nc2ccc(C(=O)OC)nc2n1Cc1ccc2oc(-c3ccccc3N)c(Br)c2c1`, 0.82 µM.
Regarding `CCCCN(CCCC)Cc1cc(N(C)c2ccc([N+](=O)[O-])cn2)ccc1O`, the IC50 worked out at 0.54 µM.
Take `COc1ccc(-c2cc(Nc3nc(-c4cccc(Cl)c4)nc4ccccc34)ccn2)cc1`: the IC50 turned out to be 0.73 µM.
`COc1ccc(NC(=O)Nc2ccc(-c3ccncc3)c(Cl)c2)cc1N1CCN(C)CC1`: the IC50 was 0.76 µM.
The result for `Cn1cnc(CCNC(=O)c2cccc(-c3cccc(-c4nc5ccc(C(F)(F)F)cc5[nH]4)c3)c2)c1` reads 0.7 µM; that for `CCOc1ccc(C(=O)N2CCOC(CCN3CCC(c4ccccc4)CC3)(c3ccc(Cl)c(Cl)c3)C2)cc1` (configuration not stated), 0.85 µM.
The result for `CCCCCCN(CCCCCC)CC(O)c1cc(-c2ccc(Cl)cc2)nc2c(C)cc(C)cc12` (configuration not stated) reads 0.07 µM.
The result for `Fc1cc(CN2CCCC2)ccc1OCCCN1CCN(c2cccc(Cl)c2Cl)CC1` reads 1.04 µM; that for `CCNc1nc(OCC(F)(F)F)nc(N(c2ccccc2)c2ccccc2)n1`, 0.47 µM; that for `O=C(/C=C/c1ccc(Cl)c(Cl)c1)N1CCC(CN2CCC(Cc3nc4ccccc4[nH]3)CC2)CC1`, 0.25 µM.
As to `COc1cccc(-c2csc(C(=O)NC3CCCCN(Cc4ccc(C(C)(C)C)cc4)C3)c2)c1` (configuration not stated), the IC50 amounted to 0.89 µM.
As for `O=C(Nc1ccc(CCNCCCc2ccccc2)cc1)Nc1ccc(Cl)c(Cl)c1`, the figure is 0.27 µM; as for `Cn1c(Nc2cc(C(C)(C)C)on2)nc2cc(Nc3ccnc(Nc4cccc(CS(C)(=O)=O)c4)n3)ccc21`, 0.57 µM; as for `Cc1cc(N[C@@H](CC(C)C)C(=O)NCCOc2ccccc2)nc(NCCc2ccccc2)n1`, 1.51 µM.
The result for `Fc1ccc(NC(=S)NN=Cc2ccccn2)cc1` reads 0.77 µM.
As for `NC1CCN(Cc2cccc(-c3ccc(-c4nc5ccccc5[nH]4)cc3)c2)C1` (configuration not stated), the figure is 0.83 µM; as for `Cn1cc(CN2CCC(OC(c3ccccc3)c3ccc(Cl)cc3)CC2)cn1` (configuration not stated), 0.84 µM.
Compound `Nc1nc(N)c2c(ccc3nn(S(=O)(=O)N4CCCC4)cc32)n1` returned an IC50 of 0.1 µM.
The result for `COc1ccccc1C1CCN(C2CCC(NC(=O)/C=C/c3ccc4c(c3)OC(F)(F)O4)CC2)CC1` (configuration not stated) reads 0.84 µM; that for `C[C@@H]1CN(c2cnn(C/C=C/c3ccc(NC(=O)c4ccc([N+](=O)[O-])cc4)cc3)c(=O)c2Cl)C[C@H](C)N1`, 0.7 µM; that for `COCCCNC(=O)c1ccc(O)c(-c2cc(Cl)cc(Cl)c2)c1`, 0.92 µM.
`COc1cccc2c(C)cc(NCc3ccc(Cl)cc3)nc12`: the IC50 is 0.86 µM.
Compound `O=C(C=Cc1ccccc1O)N1CCC(CN2CCC(c3c[nH]c4ccccc34)CC2)CC1` came in with an IC50 of 0.96 µM.
On to `c1ccc(-c2nc(NC3CCCCC3)cc(C3CC3)n2)nc1`, for which the IC50 was 0.73 µM.
As for `O=C(O)c1cc(OCC(O)COc2ccc(O)c(C(=O)O)c2)ccc1O`, the figure is 0.23 µM; as for `O=C(NCCCCN1CCC(c2ccc3c(c2OCC2COCO2)CCCC3)CC1)c1ccc(-c2ccc(C(F)(F)F)cc2)cc1` (configuration not stated), 0.87 µM.
`O=C(Nc1ccc2nc3n(c(=O)c2c1)CCCCC3)C(=O)N1CCN(c2ccc(F)cc2)CC1` had an IC50 of 0.64 µM.
As for `CN(Cc1cccc(C#N)c1)C1CCN(c2cc(NC(=O)c3cccc(F)c3)ccn2)CC1`, the figure is 0.93 µM.
The result for `Cc1cccc2[nH]c(-c3cccc(-c4ccc(NC(=O)c5ccc(=O)[nH]n5)cc4)c3)nc12` reads 0.86 µM; that for `COc1cc(Nc2nccc(N3CCC(NC(=O)Nc4cccc(C(C)=O)c4)C3)n2)cc(OC)c1OC` (configuration not stated), 0.97 µM; that for `COC(=O)c1ccc(CC(C)NCC(O)c2cccc(Cl)c2Cl)cc1` (configuration not stated), 0.55 µM.
As to `CNCCNCc1cccc(-c2ccc(-c3nc4ccccc4[nH]3)cc2)c1`, the IC50 is 0.74 µM.
